Assay results reported in US11891442B2, “Compositions and methods for treating age-related diseases” (priority 2017, dated 2024).
“Also recorded” adds a separate entry of the source.

How the values were obtained:
Assay type in all cases: cell-based, mouse
BV2 cells [1] = experiment: In vitro phagocytosis assay of pH-dependent fluorescent particles; conditions: for Phagocytosis of pH-sensitive fluorescent beads by BV2 cells: WT BV2, time-lapse microscopy 24 hours, sialidase 400 nM 1 hour, 3Fax-Neu5Ac 32 uM; for Phagocytosis of pH-dependent fluorescent particles by BV2 cells: wild-type BV2, no serum or young serum prior to feeding, monitored over 24 hours
Protocol: (§1) For in vitro phagocytosis assays, cells were split into a 24-well plate 8-24 hours prior to serum treatment at a density of 50,000 cells/well. Following specific treatments, wells were washed twice with PBS and fed pHrodo-labeled 3 μm amino-coated polystyrene particles (Polysciences) at a ratio of 10 particles per cell or crude myelin, isolated as previously described^47, at 1 mg/mL. pHrodo labeling was carried out as previously described to minimize background fluorescence^37. 4 phase and red fluorescent images per well were acquired every hour for 24 hours using the Incucyte S3 live cell analysis system (Essen Bioscience). For each time point, normalized phagocytosis was calculated using the following formula: red object area/phase confluence. To combine data from independent experiments, phagocytosis was calculated relative to control by setting phagocytosis at zero hours in the no serum control cell condition to 0, and this value at 24 hours to 1. Technical triplicates for each experiment were averaged, and the average of three independent experiments was reported.
(§2) For sialidase treatment, cells were incubated with 400 nM Vibrio cholerae sialidase for 1 hour at 37° C. in serum-free DMEM following serum treatment and prior to feeding. 3Fax-Neu5Ac (R&D) was used as previously described^33. The inhibitor was used at a concentration of 32 μM serially diluted in DMSO and used at a final concentration of 0.1% DMSO in DMEM. 3Fax-Neu5Ac was added with serum treatments for 48 hours prior to phagocytosis assays, and replaced in the feeding medium.
Cells were split into a 24-well plate 24 hours prior to feeding at a density of 50,000 cells/well in serum free medium. Following specific treatments, wells were washed twice with PBS and fed pHrodo-labeled 3 micron amino-coated polystyrene particles (Polysciences) at a ratio of 10 particles per cell. pHrodo labeling was carried out as previously described to minimize background fluorescence^37. 4 phase and red fluorescent images per well were acquired every hour for 24 hours using the Incucyte S3 live cell analysis system (Essen Bioscience). For each time point, normalized phagocytosis was calculated using the following formula: red object area/phase confluence. To combine data from independent experiments, phagocytosis relative to control was calculated by setting phagocytosis at zero hours in the control condition to 0, and this value at 24 hours to 1. Technical triplicates for each experiment were averaged, and the average of three independent experiments was identified.
as §2, with “Cells” for “For sialidase treatment, cells”, “DMEM” for “DMEM following serum treatment and”, “phagocytosis.” for “feeding.”, “described^58.” for “described^33.”, “uM” for “μM”

primary microglia = experiment: Ex vivo microglial phagocytosis assay
Protocol: Whole brain myelin-depleted single-cell suspensions were prepared as described above. Next, a rough estimation of microglia counts from each brain was determined by strictly gating a volume-designated aliquot of the suspensions by forward scatter/side scatter on a flow cytometer (BD Accuri C6). Each suspension was adjusted to contain equal numbers of microglia per unit volume. Then, single cell brain suspensions were treated with sialidase, a CD22 blocking antibody (R&D), or no treatment for 1 hour at 37° C. with periodic agitation. Treatments were washed out and cells were resuspended in FACS buffer containing pHrodo- or CypHer5E-conjugated particles at a ratio of 50 particles per microglia. The cell-particle mixture was incubated for 1-2 hours at 37° C. with periodic agitation. Phagocytosis was stopped by transferring the suspensions to ice, where the cells were stained with antibodies to distinguish microglia. Microglial phagocytosis was assessed by flow cytometry by pre-gating live CD11b+CD45lo cells and assessing pH dependent particle fluorescence within this population. The eating gate was determined using an unfed control, and confirmed by sorting an aliquot of the sample into noneating and eating populations by FACS followed by microscopic assessment.
Whole brain myelin-depleted single-cell suspensions were prepared as described above. Next, a rough estimation of microglia counts from each brain was determined by strictly gating a volume-designated aliquot of the suspensions by forward scatter/side scatter on a flow cytometer (BD Accuri C6). Each suspension was adjusted to contain equal microglia per unit volume. Then, single cell brain suspensions were treated accordingly for 1 hour in serum free DMEM-F12 at 37° C. with periodic agitation. Treatments were washed out and cells were resuspended in FACS buffer containing pHrodo- or CypHer5E-conjugated particles at a ratio of 50 particles per microglia. The cell-particle mixture was incubated for 1-2 hours at 37° C. with periodic agitation. Phagocytosis was stopped by transferring the suspensions to ice, where the cells were stained with antibodies to distinguish microglia. Microglial phagocytosis was assessed by flow cytometry by pre-gating live CD11b+CD45lo cells and assessing pH-dependent particle fluorescence within this population. The eating gate was determined using an unfed control, and confirmed by sorting an aliquot of the sample into non-eating and eating populations by FACS followed by microscopic assessment.

peritoneal macrophages = experiment: Peritoneal macrophage phagocytosis of pH-dependent fluorescent latex particles; conditions: aged (20-month-old) compared to young (2-month-old) macrophages; sialidase
Protocol: as §1
For sialidase treatment, cells were incubated with 400 nM Vibrio cholerae sialidase for 1 hour at 37° C. in serum-free DMEM following serum treatment and prior to feeding. 3Fax-Neu5Ac (R&D) was used as previously described^33. […]

BV2 cells [2] = experiment: Lectin (SNA, MAA) staining of cell-surface sialic acid by flow cytometry; conditions: WT BV2 cells pretreated with sialidase
From the text: Antibodies to CD11b (clone M1/70, BioLegend) and CD45 (clone 30-F11, Biolegend) were used for microglia identification (CD11b+CD45lo). For primary microglia immunophenotyping, the following lectins and antibodies were used: biotinylated Sambucus nigra agglutinin (SNA, Vector Labs), biotinylated Maackia amurensis agglutinins (MAA-1 and MAA-2, Vector), biotinylated Erythrina cristagalli lectin (ECL, EY Labs), biotinylated wheat germ agglutinin (WGA, Vector), recombinant mouse Siglec-E (R&D), recombinant mouse Siglec-F (R&D), antibodies to mouse Siglec-1 (clone REA197, Miltenyi Biotec), CD22 (clone OX-97, Biolegend), Siglec-E (clone M1304A01, Biolegend), Siglec-F (clone ES22-10D8, Miltenyi Biotec), Siglec-G (clone SH1, BD Biosciences), Siglec-H (clone 551, Biolegend), CD33 (clone 9A11, eBioscience), Galectin-3 (clone M3/38, Biolegend). For immunostaining, cells were passed through a 100 μm strainer, blocked for 10 minutes on ice with mouse Fc-blocking reagent (BD), and stained for 30 minutes on ice in DPBS containing calcium and magnesium supplemented with 1% bovine serum albumin. […] Data was analyzed using FlowJo software (TreeStar).
Antibodies to CD11b (clone M1/70, BioLegend) and CD45 (clone 30-F11, Biolegend) were used for microglia identification (CD11b+CD45lo). […] Data was analyzed using FlowJo software (TreeStar).

| Compound | Phagocytosis of pH-sensitive fluorescent beads by BV2 cells (BV2 cells [1]) | Phagocytosis of pH-dependent fluorescent particles by BV2 cells (BV2 cells [1]) | Engulfment of pH-dependent beads by BV2 cells (flow cytometry) (BV2 cells [1]; 1 hour of feeding, used to define eating gate) | Ex vivo phagocytosis by microglia from aged CD22−/− mice (primary microglia; aged (18 m.o.) CD22−/−) | Ex vivo phagocytosis of latex particles by aged microglia (primary microglia; aged WT mice, 1 hour pretreatment, flow cytometry) | Ex vivo phagocytosis by microglia from 12-month-old CD22−/− mice (primary microglia; relative to age-matched wild-type control microglia) | Ex vivo phagocytosis of latex particles by young microglia (primary microglia; young (2-month-old) mice) | Phagocytosis by peritoneal macrophages (peritoneal macrophages) | SNA and MAA ligand expression on the cell surface (BV2 cells [2]) | Phagocytosis of pH-sensitive fluorescent beads by CD22 KO BV2 cells (BV2 cells [1]; CD22 KO BV2 + sialidase) |
| --- | --- | --- | --- | --- | --- | --- | --- | --- | --- | --- |
| COC(=O)C1(OC(C)=O)OC([C@H](OC(C)=O)[C@@H](COC(C)=O)OC(C)=O)C(NC(C)=O)C(OC(C)=O)C1F (stereo partly drawn) [3Fax-Neu5Ac, reference compound] | promotes phagocytosis in BV2 cells | promoted phagocytosis in the no serum condition only |  |  |  |  |  |  |  |  |
| C=C1[C@@H](C)[C@H]2[C@H](Cc3ccccc3)NC(=O)[C@]23[C@H](OC(C)=O)/C=C/[C@@](C)(O)C(=O)[C@@H](C)C/C=C/[C@H]3[C@@H]1O [cytochalasin D, reference compound] |  |  | actin polymerization is blocked preventing engulfment |  |  |  |  |  |  |  |
| sialidase: Sialidase from Vibrio cholerae expressed in Escherichia coli C600; removes cell-surface sialic acid | promotes phagocytosis in BV2 cells | promote phagocytosis in the absence of young serum |  | had no effect in CD22−/− microglia | rescued phagocytosis in aged microglia; also recorded: promoted phagocytosis in WT microglia | reduced pro-phagocytic response to sialidase | did not enhance phagocytosis in already competent young microglia | increased phagocytosis dramatically in aged macrophages | reduce sialic acid ligands on the cell surface | completely abrogated in the absence of CD22 |
